Experimental data: patent US20230095836A1, “SUBSTITUTED 5,6-DIPHENYL-3(2H)-PYRIDAZINONES FOR USE AS FUNGICIDES” (FMC Corporation, priority 2020, published 2023)

Tests used:
Format in all cases: in vivo
[1] = tested on: Puccinia recondita f. sp. tritici; assay: Test B: test solution sprayed on wheat seedlings, inoculated next day with Puccinia recondita f. sp. tritici (wheat leaf rust); disease rating (100 = 100% disease control, 0 = no control; dash = not tested)
From the text: The resulting test suspensions were then used in Tests A-F. The test solution was sprayed to the point of run-off on wheat seedlings. […] A rating of 100 indicates 100% disease control and a rating of 0 indicates no disease control (relative to the controls). A dash (—) indicates the compound was not tested.

Zymoseptoria tritici = assay: Test A: test solution sprayed on wheat seedlings, inoculated next day with Zymoseptoria tritici (wheat leaf blotch); disease rating (100 = 100% disease control, 0 = no control; dash = not tested)
Outline: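 Wheat seedlings sprayed to run-off with test solution, inoculated next day with Z. tritici spores, held 48 h at 24° C in saturated atmosphere, then 17 days at 20° C before rating. Scores are % disease control relative to controls (100 = full control, 0 = none).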

Botrytis cinerea = assay: Test E: test suspension sprayed on tomato seedlings, inoculated next day with Botrytis cinerea (tomato Botrytis); visual disease rating (100 = 100% disease control, 0 = no control; dash = not tested)
Outline: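 Tomato seedlings were sprayed to run-off and inoculated next day with Botrytis cinerea spores. They were held 48 h at 20° C in saturated humidity, then 3 days at 24° C. Disease control was rated visually against controls (100 = full, 0 = none).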

Phakopsora pachyrhizi = assay: Test D: test solution sprayed on soybean seedlings, inoculated next day with Phakopsora pachyrhizi (Asian soybean rust); visual disease rating (100 = 100% disease control, 0 = no control; dash = not tested)
Outline: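 Compounds predissolved in acetone (3% of final volume), suspended at ppm concentrations in 50/50 acetone/water with 250 ppm PEG400, sprayed to run-off on soybean seedlings. Inoculated next day with spores, 24 h saturated atmosphere at 22 °C, then 8 days growth chamber at 22 °C; visual rating, 100 = full control.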

[2] = tested on: Blumeria graminis f. sp. tritici; assay: Test C: test suspension sprayed on wheat seedlings, inoculated next day with Blumeria graminis f. sp. tritici (wheat powdery mildew); visual disease rating (100 = 100% disease control, 0 = no control; dash = not tested)
Outline: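 Wheat seedlings were sprayed to run-off with test suspension, then dusted next day with Blumeria graminis f. sp. tritici spores. After 8 days at 20 °C in a growth chamber, disease was rated visually as percent control relative to untreated controls.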

Alternaria solani = assay: Test F: test suspension sprayed on tomato seedlings, inoculated next day with Alternaria solani (tomato early blight); visual disease rating (100 = 100% disease control, 0 = no control; dash = not tested)
Outline: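 Tomato seedlings sprayed to run-off with test suspension, inoculated next day with A. solani spores, held saturated at 27° C. for 48 h, then 20° C. for 3 days. Disease visually rated as % control relative to untreated controls.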

SMILES	Test B disease control rating ([1]; 250 ppm) [%]	Test A disease control rating (Zymoseptoria tritici; 250 ppm) [%]	Test E disease control rating (Botrytis cinerea; 250 ppm) [%]	Test D disease control rating (Phakopsora pachyrhizi; 250 ppm) [%]	Test C disease control rating ([2]; 250 ppm) [%]	Test F disease control rating (Alternaria solani; 250 ppm) [%]	Test B disease control rating ([1]; 50 ppm) [%]	Test A disease control rating (Zymoseptoria tritici; 50 ppm) [%]	Test E disease control rating (Botrytis cinerea; 50 ppm) [%]	Test D disease control rating (Phakopsora pachyrhizi; 50 ppm) [%]	Test C disease control rating ([2]; 50 ppm) [%]	Test F disease control rating (Alternaria solani; 50 ppm) [%]	also measured
CCn1nc(-c2cc(OC)cc(OC)c2)c(-c2cc(OC)cc(OC)c2)cc1=O [Compound 3]	0	7	0	0	0	0							
COc1c(-c2ccc(F)cc2Cl)c(-c2ccccc2)nn(C)c1=O [Compound 142, 5-(2-chloro-4-fluorophenyl)-4-methoxy-2-methyl-6-phenyl-3(2H)-pyridazinone]													pest or weed control at 50 ppm ([1]; 50 ppm): 68%; pest or weed control at 50 ppm (Zymoseptoria tritici; 50 ppm): 95%; pest or weed control at 50 ppm (Botrytis cinerea; 50 ppm): 98%; pest or weed control at 50 ppm (Phakopsora pachyrhizi; 50 ppm): 0%; pest or weed control at 50 ppm ([2]; 50 ppm): 99%; pest or weed control at 50 ppm (Alternaria solani; 50 ppm): 98%
COc1cc(OC)cc(C2=NN(C)C(=O)CC2c2ccc(F)cc2Cl)c1 (stereo not drawn) [Compound 20]	9	51	31	0	21	0							
CCOC(=O)c1c(-c2ccc(F)cc2Cl)c(-c2ccc(F)cc2Cl)nn(C)c1=O [Compound 143]	80	6	0	0	100	0							
CCn1nc(-c2cc(OC)cc(OC)c2)c(-c2c(F)cccc2F)c(Cl)c1=O [Compound 1]	55	87	90	0	0	0							
Cn1nc(-c2cc(F)ccc2Cl)c(-c2ccc(F)cc2Cl)c(Cl)c1=O [Compound 82]							100	100	64	100	100	100	
Cn1nc(-c2ccc(F)cc2Cl)c(-c2ccc(F)cc2Cl)c(C(=O)O)c1=O [Compound 144]	0	0	0	74	0	0							
COc1ccc(-c2nn(C)c(=O)c(Cl)c2-c2ccc(F)cc2Cl)c(F)c1 [Compound 163]							100	100	100	77	78	99	
COc1cc(OC)cc(-c2nn(C)c(=O)c(OC)c2-c2ccc(F)cc2Cl)c1 [Compound 78]							99	100	95	59	98	99	
CON(C)C(=O)c1c(-c2ccc(F)cc2Cl)c(-c2ccc(F)cc2Cl)nn(C)c1=O [Compound 176]	80	4	0	0	0	0							
COc1ccc(-c2nn(C)c(=O)cc2-c2c(F)cccc2F)c(F)c1 [Compound 192]	80	38	93	91	84	0							
COc1cc(OC)c(Br)c(-c2nn(C)c(=O)c(OC)c2-c2ccc(F)cc2Cl)c1 [Compound 79]							100	100	97	100	100	100	
COc1cc(F)cc(-c2nn(C)c(=O)cc2-c2c(F)cccc2F)c1Cl [Compound 206]							100	97	100	65	93	76	
